Measured values as given in patent publication US20030153618A1, “Treatment and prevention of herpes simplex infections” (priority 1999, published 2003).

Tests used:
HSV, Type II = assay: Direct plaque-forming unit (PFU) count in BSC cells in defined media with set lysine (or derivative):arginine ratio; assay type: cell-based; details: average of three tests
Description: Absorbed virons were absorbed in susceptible cells in chemically defined media and the number of plaques made were counted. (See Davis, B. D., et al., Microbiology, 2nd Ed., Harper & Row, 1973, Part V, and sources cited therein for procedural details and discussion of the plaque method.)
The cell line chosen was green monkey kidney cells (BSC) that have been passed greater than 41 times. […] The virons were added to a confluent lawn of BSC cells and allowed to absorb at 25° C. for one hour. The unabsorbed virons and the media were removed by washing three times in PBS. […] The control media contained a lysine/arginine ratio of 1:1. The plaques were counted when easily readable. Flasks are done in triplicate.

Herpes simplex II virus = assay: Back titration plaque assay: PFU counts at stated amounts of compound under test and arginine; assay type: cell-based, Herpes simplex II virus (BSC cells)
Description: The following experiments were conducted by back titration: Herpes simplex II virus from laboratory stocks was used. BSC cells were grown to confluence in Eagles medium with 15% fetal calf serum, 150 units per milliliter of penicillin and 100 micrograms per milliliter of streptomycin. The cultures were inoculated with 500 PFU of HS II. The virons were allowed to absorb for one hour at 25° C. The tissue cultures were then washed three times with sterile PBS to remove excess media and non-absorbed virons. The cells were then incubated at 37° C. until four-plus cytopathic effects were observed. The cells were then disrupted by slow freeze-thaw two times. The suspension was then clarified by slow speed centrifugation at 4° C. The supemanant suspension was then added to confluent BSC cultures. After one hour absorption, the cells were washed with PBS twice. The cells were overlaid in defined reagent (in triplicate) Eagles media in noble agar. The cells were then incubated at 37° C. until the plaques were easily counted, usually 40 t 72 hours. the cells were then washed two times with PBS and then fixed with 10% H2CO and a 2% sodium acetate. The cells were then stained in 0.1% crystal violet in ethanol. In the tables which follow the concentration of the compound to be tested, in micrograms per milliliter, is listed across the top of the table and the concentration of arginine in micrograms per milliliter is listed down the left side of the table, the count of plaque-forming units being shown in the matrix.

## CC(CN)CC[C@H](N)C(=O)O (stereo partly drawn) [5-Methyl lysine]
HSV, Type II; Compound Ratio to Arginine 10:1
  P.F.U. Count: 79
HSV, Type II; Compound Ratio to Arginine 100:1
  P.F.U. Count: 43
Herpes simplex II virus; compound 10 μg/ml, arginine 0 μg/ml
  P.F.U. Count: 30
Herpes simplex II virus; compound 10 μg/ml, arginine 2.5 μg/ml
  P.F.U. Count: 2.7 × 10^3
Herpes simplex II virus; compound 10 μg/ml, arginine 5.0 μg/ml
  P.F.U. Count: 3.7 × 10^4
Herpes simplex II virus; compound 10 μg/ml, arginine 7.5 μg/ml
  P.F.U. Count: 6.0 × 10^4
Herpes simplex II virus; compound 10 μg/ml, arginine 10 μg/ml
  P.F.U. Count: 7.9 × 10^4
Herpes simplex II virus; compound 10 μg/ml, arginine 15 μg/ml
  P.F.U. Count: 2.0 × 10^5
Herpes simplex II virus; compound 10 μg/ml, arginine 20 μg/ml
  P.F.U. Count: 3.0 × 10^5
Herpes simplex II virus; compound 10 μg/ml, arginine 25 μg/ml
  P.F.U. Count: 3.0 × 10^5
Herpes simplex II virus; compound 25 μg/ml, arginine 0 μg/ml
  P.F.U. Count: 0
Herpes simplex II virus; compound 25 μg/ml, arginine 2.5 μg/ml
  P.F.U. Count: 697
Herpes simplex II virus; compound 25 μg/ml, arginine 5.0 μg/ml
  P.F.U. Count: 1.4 × 10^3
Herpes simplex II virus; compound 25 μg/ml, arginine 7.5 μg/ml
  P.F.U. Count: 4.7 × 10^3
Herpes simplex II virus; compound 25 μg/ml, arginine 10 μg/ml
  P.F.U. Count: 6.5 × 10^4
Herpes simplex II virus; compound 25 μg/ml, arginine 15 μg/ml
  P.F.U. Count: 1.7 × 10^4
Herpes simplex II virus; compound 25 μg/ml, arginine 20 μg/ml
  P.F.U. Count: 3.1 × 10^5
Herpes simplex II virus; compound 25 μg/ml, arginine 25 μg/ml
  P.F.U. Count: 3.0 × 10^5
Herpes simplex II virus; compound 50 μg/ml, arginine 0 μg/ml
  P.F.U. Count: 0
Herpes simplex II virus; compound 50 μg/ml, arginine 2.5 μg/ml
  P.F.U. Count: 0
Herpes simplex II virus; compound 50 μg/ml, arginine 5.0 μg/ml
  P.F.U. Count: 190
Herpes simplex II virus; compound 50 μg/ml, arginine 7.5 μg/ml
  P.F.U. Count: 190
Herpes simplex II virus; compound 50 μg/ml, arginine 10 μg/ml
  P.F.U. Count: 1.7 × 10^3
Herpes simplex II virus; compound 50 μg/ml, arginine 15 μg/ml
  P.F.U. Count: 1.3 × 10^3
Herpes simplex II virus; compound 50 μg/ml, arginine 20 μg/ml
  P.F.U. Count: 3.0 × 10^5
Herpes simplex II virus; compound 50 μg/ml, arginine 25 μg/ml
  P.F.U. Count: 3.0 × 10^5
Herpes simplex II virus; compound 100 μg/ml, arginine 0 μg/ml
  P.F.U. Count: 0
Herpes simplex II virus; compound 100 μg/ml, arginine 2.5 μg/ml
  P.F.U. Count: 0
Herpes simplex II virus; compound 100 μg/ml, arginine 5.0 μg/ml
  P.F.U. Count: 69
Herpes simplex II virus; compound 100 μg/ml, arginine 7.5 μg/ml
  P.F.U. Count: 170
Herpes simplex II virus; compound 100 μg/ml, arginine 10 μg/ml
  P.F.U. Count: 656
Herpes simplex II virus; compound 100 μg/ml, arginine 15 μg/ml
  P.F.U. Count: 710
Herpes simplex II virus; compound 100 μg/ml, arginine 20 μg/ml
  P.F.U. Count: 1.2 × 10^5
Herpes simplex II virus; compound 100 μg/ml, arginine 25 μg/ml
  P.F.U. Count: 2.4 × 10^5
Herpes simplex II virus; compound 200 μg/ml, arginine 0 μg/ml
  P.F.U. Count: 0
Herpes simplex II virus; compound 200 μg/ml, arginine 2.5 μg/ml
  P.F.U. Count: 0
Herpes simplex II virus; compound 200 μg/ml, arginine 5.0 μg/ml
  P.F.U. Count: 0
Herpes simplex II virus; compound 200 μg/ml, arginine 7.5 μg/ml
  P.F.U. Count: 0
Herpes simplex II virus; compound 200 μg/ml, arginine 10 μg/ml
  P.F.U. Count: 79
Herpes simplex II virus; compound 200 μg/ml, arginine 15 μg/ml
  P.F.U. Count: 63
Herpes simplex II virus; compound 200 μg/ml, arginine 20 μg/ml
  P.F.U. Count: 2.7 × 10^5
Herpes simplex II virus; compound 200 μg/ml, arginine 25 μg/ml
  P.F.U. Count: 4.1 × 10^5
Herpes simplex II virus; compound 300 μg/ml, arginine 0 μg/ml
  P.F.U. Count: 0
Herpes simplex II virus; compound 300 μg/ml, arginine 2.5 μg/ml
  P.F.U. Count: 0
Herpes simplex II virus; compound 300 μg/ml, arginine 5.0 μg/ml
  P.F.U. Count: 0
Herpes simplex II virus; compound 300 μg/ml, arginine 7.5 μg/ml
  P.F.U. Count: 0
Herpes simplex II virus; compound 300 μg/ml, arginine 10 μg/ml
  P.F.U. Count: 0
Herpes simplex II virus; compound 300 μg/ml, arginine 15 μg/ml
  P.F.U. Count: 1.9 × 10^4
Herpes simplex II virus; compound 300 μg/ml, arginine 20 μg/ml
  P.F.U. Count: 5.6 × 10^4
Herpes simplex II virus; compound 300 μg/ml, arginine 25 μg/ml
  P.F.U. Count: 6.1 × 10^4
Herpes simplex II virus; compound 400 μg/ml, arginine 0 μg/ml
  P.F.U. Count: 0
Herpes simplex II virus; compound 400 μg/ml, arginine 2.5 μg/ml
  P.F.U. Count: 0
Herpes simplex II virus; compound 400 μg/ml, arginine 5.0 μg/ml
  P.F.U. Count: 0
Herpes simplex II virus; compound 400 μg/ml, arginine 7.5 μg/ml
  P.F.U. Count: 0
Herpes simplex II virus; compound 400 μg/ml, arginine 10 μg/ml
  P.F.U. Count: 0
Herpes simplex II virus; compound 400 μg/ml, arginine 15 μg/ml
  P.F.U. Count: 1.9 × 10^4
Herpes simplex II virus; compound 400 μg/ml, arginine 20 μg/ml
  P.F.U. Count: 1.7 × 10^4
Herpes simplex II virus; compound 400 μg/ml, arginine 25 μg/ml
  P.F.U. Count: 4.6 × 10^4
Herpes simplex II virus; compound 500 μg/ml, arginine 0 μg/ml
  P.F.U. Count: 0
Herpes simplex II virus; compound 500 μg/ml, arginine 2.5 μg/ml
  P.F.U. Count: 0
Herpes simplex II virus; compound 500 μg/ml, arginine 5.0 μg/ml
  P.F.U. Count: 0
Herpes simplex II virus; compound 500 μg/ml, arginine 7.5 μg/ml
  P.F.U. Count: 0
Herpes simplex II virus; compound 500 μg/ml, arginine 10 μg/ml
  P.F.U. Count: 0
Herpes simplex II virus; compound 500 μg/ml, arginine 15 μg/ml
  P.F.U. Count: 1.0 × 10^4
Herpes simplex II virus; compound 500 μg/ml, arginine 20 μg/ml
  P.F.U. Count: 2.3 × 10^3
Herpes simplex II virus; compound 500 μg/ml, arginine 25 μg/ml
  P.F.U. Count: 4.0 × 10^4
